Results as given in patent publication US20060089375A1, “Pyrazolo[3,4-b] pyridine compounds, and their use as phosphodiesterase inhibitors” (priority 2002, published 2006).

Molecular target: T1, PDE4B (human recombinant) (Homo sapiens, UniProt Q07343)
T1 construct: made in house
Experiment: Inhibition of PDE4B activity: radioactive SPA or IMAP Fluorescence Polarisation (FP) assay
Format: biochemical
Conditions: PDE4B inhibitory activity, one reading or average of ca. 2-6 readings, read-out: PDE4B pIC50 (± about 0.5) (converted)
Description: Human recombinant PDE4B, in particular the 2B splice variant thereof (HSPDE4B2B), is disclosed in WO 94/20079 and also M. M. McLaughlin et al., “A low Km, rolipram-sensitive, cAMP-specific phosphodiesterase from human brain: cloning and expression of cDNA, biochemical characterisation of recombinant protein, and tissue distribution of mRNA”, J. Biol. Chem., 1993, 268, 6470-6476. For example, in Example 1 of WO 94/20079, human recombinant PDE4B is described as being expressed in the PDE-deficient yeast Saccharomyces cerevisiae strain GL62, e.g. after induction by addition of 150 uM CuSO4, and 100,000×g supernatant fractions of yeast cell lysates are described for use in the harvesting of PDE4B enzyme.
The ability of compounds to inhibit catalytic activity at PDE4B or 4D (human recombinant), PDE3 (from bovine aorta), PDE5 (human recombinant) or PDE6 (from bovine retina) was determined by Scintillation Proximity Assay (SPA) in 96-well format. Test compounds (preferably as a solution in DMSO, e.g. 0.5 to 1 microlitre (ul) volume) were preincubated at ambient temperature (room temperature, e.g. 19-23° C.) in Wallac Isoplates (code 1450-514) with PDE enzyme in 50 mM Tris-HCl buffer pH 7.5, 8.3 mM MgCl2, 1.7 mM EGTA, 0.05% (w/v) bovine serum albumin for 10-30 minutes (usually 30 minutes). The enzyme concentration was adjusted so that no more than 20% hydrolysis of the substrate defined below occurred in control wells without compound, during the incubation. For the PDE3, PDE4B and PDE4D assays, [5′,8-^3H]Adenosine 3′,5′-cyclic phosphate (Amersham Pharmacia Biotech, code TRK.559; or Amersham Biosciences UK Ltd, Pollards Wood, Chalfont St Giles, Buckinghamshire HP8 4SP, UK) was added to give 0.05 uCi per well and ˜10 nM final concentration. For the PDE5 and PDE6 assays, [8-^3H]Guanosine 3′,5′-cyclic phosphate (Amersham Pharmacia Biotech, code TRK.392) was added to give 0.05 uCi per well and ˜36 nM final concentration. Plates, e.g. containing approx. 100 ul volume of assay mixture, were mixed on an orbital shaker for 5 minutes and incubated at ambient temperature for 1 hour. Phosphodiesterase SPA beads (Amersham Pharmacia Biotech, code RPNQ 0150) were added ([…] per well) to terminate the assay. Plates were sealed and shaken and allowed to stand at ambient temperature for 35 minutes to 1 hour (preferably 35 minutes) to allow the beads to settle. Bound radioactive product was measured using a WALLAC TRILUX 1450 Microbeta scintillation counter. For inhibition curves, 10 concentrations (1.5 nM-30 uM) of each compound were assayed. Curves were analysed using ActivityBase and XLfit (ID. Business Solutions Limited, 2 Ocean Court, Surrey Research Park, Guildford, Surrey GU2 7QB, United Kindgom) Results were expressed as pIC50 values.
The ability of compounds to inhibit catalytic activity at PDE4B (human recombinant) or PDE4D (human recombinant) was determined by IMAP Fluorescence Polarisation ([…]) assay (IMAP Explorer kit, available from Molecular Devices Corporation, Sunnydale, Calif., USA; Molecular Devices code: R^8062) in 384-well format. The IMAP FP assay is able to measure PDE activity in an homogenous, non-radioactive assay format. The FP assay uses the ability of immobilised trivalent metal cations, coated onto nanoparticles (tiny beads), to bind the phosphate group of Fl-AMP that is produced on the hydrolysis of fluorescein-labelled (Fl) cyclic adenosine mono-phosphate (Fl-cAMP) to the non-cyclic Fl-AMP form. […] Binding of Fl-AMP product to the beads (coated with the immobilised trivalent cations) slows the rotation of the bound Fl-AMP and leads to an increase in the fluorescence polarisation ratio of parallel to perpendicular light. Inhibition of the PDE reduces/inhibits this signal increase. […]

T1 sequence (Q07343 1-564 isoform Q07343-2): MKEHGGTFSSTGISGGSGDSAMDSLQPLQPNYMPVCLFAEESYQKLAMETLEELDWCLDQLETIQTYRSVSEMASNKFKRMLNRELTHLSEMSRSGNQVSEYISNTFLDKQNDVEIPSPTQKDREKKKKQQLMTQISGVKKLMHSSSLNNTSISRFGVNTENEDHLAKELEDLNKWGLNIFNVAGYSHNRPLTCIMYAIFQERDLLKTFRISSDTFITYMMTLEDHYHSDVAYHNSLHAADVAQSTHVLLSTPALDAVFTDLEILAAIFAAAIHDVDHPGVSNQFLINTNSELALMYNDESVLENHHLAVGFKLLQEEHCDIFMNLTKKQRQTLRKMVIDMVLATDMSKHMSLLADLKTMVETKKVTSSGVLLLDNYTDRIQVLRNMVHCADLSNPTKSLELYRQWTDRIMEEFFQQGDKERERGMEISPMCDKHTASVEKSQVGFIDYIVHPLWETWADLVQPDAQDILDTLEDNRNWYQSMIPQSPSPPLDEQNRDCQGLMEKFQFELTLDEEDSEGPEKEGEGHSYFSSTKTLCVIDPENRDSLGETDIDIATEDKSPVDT

IC50 | SMILES
0.1 to 6.31 nM | CCn1ncc2c(NC3CCC(=O)CC3)c(C(=O)NCc3ccc(C(F)(F)F)cc3)cnc21 [Example 267, 1-Ethyl-4-[(4-oxocyclohexyl)amino]-N-{[4-(trifluoromethyl)phenyl]methyl}-1H-pyrazolo[3,4-b]pyridine-5-carboxamide]
0.1 to 6.31 nM | CCn1ncc2c(NC3CCC(=O)CC3)c(C(=O)NC3Cc4ccccc4C3)cnc21 [Example 271, N-(2,3-Dihydro-1H-inden-2-yl)-1-ethyl-4-[(4-oxocyclohexyl)amino]-1H-pyrazolo[3,4-b]pyridine-5-carboxamide]
0.1 to 6.31 nM | CCn1ncc2c(NC3CCCCC3)c(C(=O)NCc3ccc(OC)cc3)cnc21 [Example 431, 4-(Cyclohexylamino)-1-ethyl-N-{[4-(methyloxy)phenyl]methyl}-1H-pyrazolo[3,4-b]pyridine-5-carboxamide]
0.1 to 6.31 nM | CCn1ncc2c(NC3CCOCC3)c(C(=O)NCc3ccc(C)c(Cl)c3)cnc21 [Example 493, N-[(3-Chloro-4-methylphenyl)methyl]-1-ethyl-4-(tetrahydro-2H-pyran-4-ylamino)-1H-pyrazolo[3,4-b]pyridine-5-carboxamide]
0.1 to 6.31 nM | CCn1ncc2c(NC3CCOCC3)c(C(=O)NCc3ccc(Cl)cc3C)cnc21 [Example 494, N-[(4-Chloro-2-methylphenyl)methyl]-1-ethyl-4-(tetrahydro-2H-pyran-4-ylamino)-1H-pyrazolo[3,4-b]pyridine-5-carboxamide]
0.1 to 6.31 nM | CCn1ncc2c(NC3CCOCC3)c(C(=O)NCc3ccccc3OC(F)F)cnc21 [Example 495, N-({2-[(Difluoromethyl)oxy]phenyl}methyl)-1-ethyl-4-(tetrahydro-2H-pyran-4-ylamino)-1H-pyrazolo[3,4-b]pyridine-5-carboxamide]
0.1 to 6.31 nM | CCn1ncc2c(NC3CCOCC3)c(C(=O)NCc3cccc(OC(F)F)c3)cnc21 [Example 498, N-({3-[(Difluoromethyl)oxy]phenyl}methyl)-1-ethyl-4-(tetrahydro-2H-pyran-4-ylamino)-1H-pyrazolo[3,4-b]pyridine-5-carboxamide]
0.1 to 6.31 nM | CCn1ncc2c(NC3CCOCC3)c(C(=O)NCc3ccc(C)cc3)cnc21 [Example 528, 1-Ethyl-N-[(4-methylphenyl)methyl]-4-(tetrahydro-2H-pyran-4-ylamino)-1H-pyrazolol[3,4-b]pyridine-5-carboxamide]
0.1 to 6.31 nM | CCn1ncc2c(NC3CCOCC3)c(C(=O)NCc3ccc(C(C)C)cc3)cnc21 [Example 551, 1-Ethyl-N-{[4-(1-methylethyl)phenyl]methyl)-4-(tetrahydro-2H-pyran-4-ylamino)-1H-pyrazolo[3,4-b]pyridine-5-carboxamide]
0.1 to 6.31 nM | CCc1cc(CC)cc(CNC(=O)c2cnc3c(cnn3CC)c2NC2CCOCC2)c1 [Example 575, N-[(3,5-Diethylphenyl)methyl]-1-ethyl-4-(tetrahydro-2H-pyran-4-ylamino)-1H-pyrazolo[3,4-b]pyridine-5-carboxamide]
0.1 to 6.31 nM | CCn1ncc2c(NC3CCOCC3)c(C(=O)NCc3cc(Cl)cc(Cl)c3)cnc21 [Example 581, N-[(3,5-Dichlorophenyl)methyl]-1-ethyl-4-(tetrahydro-2H-pyran-4-ylamino)-1H-pyrazolo[3,4-b]pyridine-5-carboxamide]
0.1 to 6.31 nM | CCn1ncc2c(NC3CCOCC3)c(C(=O)NCc3ccc(C)cc3C)cnc21 [Example 584, N-[(2,4-Dimethylphenyl)methyl]-1-ethyl-4-(tetrahydro-2H-pyran-4-ylamino)-1H-pyrazolo[3,4-b]pyridine-5-carboxamide]
12.6 to 100 nM | CCn1ncc2c(NC3CCOCC3)c(C(=O)NCc3ccccn3)cnc21 [Example 600, 1-Ethyl-N-(2-pyridinylmethyl)-4-(tetrahydro-2H-pyran-4-ylamino)-1H-pyrazolo[3,4-b]pyridine-5-carboxamide]
0.1 to 6.31 nM | CCc1ccccc1CNC(=O)c1cnc2c(cnn2CC)c1NC1CCOCC1 [Example 619, 1-Ethyl-N-[(2-ethylphenyl)methyl]-4-(tetrahydro-2H-pyran-4-ylamino)-1H-pyrazolo[3,4-b]pyridine-5-carboxamide]
0.1 to 6.31 nM | CCn1ncc2c(NC3CCOCC3)c(C(=O)NCc3ccc(Cl)cc3F)cnc21 [Example 622, N-[(4-Chloro-2-fluorophenyl)methyl]-1-ethyl-4-(tetrahydro-2H-pyran-4-ylamino)-IH-pyrazolo[3,4-b]pyridine-5-carboxamide]
0.1 to 6.31 nM | CCn1ncc2c(NC3CCOCC3)c(C(=O)NCc3cc(C)cc(C)c3)cnc21 [Example 624, N-[(3,5-Dimethylphenyl)methyl]-1-ethyl-4-(tetrahydro-2H-pyran-4-ylamino)-1H-pyrazolo[3,4-b]pyridine-5-carboxamide]
0.1 to 6.31 nM | CCn1ncc2c(NC3CCOCC3)c(C(=O)NCc3cccc(C)c3C)cnc21 [Example 625, N-[(2,3-Dimethylphenyl)methyl]-1-ethyl-4-(tetrahydro-2H-pyran-4-ylamino)-1H-pyrazolo[3,4-b]pyridine-5-carboxamide]
0.1 to 6.31 nM | CCn1ncc2c(NC3CCOCC3)c(C(=O)NCc3cccc(Cl)c3Cl)cnc21 [Example 626, N-[(2,3-Dichlorophenyl)methyl]-1-ethyl-4-(tetrahydro-2H-pyran-4-ylamino)-1H-pyrazolo[3,4-b]pyridine-5-carboxamide]
0.1 to 6.31 nM | CCn1ncc2c(NC3CCOCC3)c(C(=O)NCc3ccc(Br)cc3)cnc21 [Example 628, N-[(4-Bromophenyl)methyl]-1-ethyl-4-(tetrahydro-2H-pyran-4-ylamino)-1H-pyrazolo[3,4-b]pyridine-5-carboxamide]
0.1 to 6.31 nM | CCn1ncc2c(NC3CCOCC3)c(C(=O)NCc3ccc(I)cc3)cnc21 [Example 630]
0.1 to 6.31 nM | CCc1ccc(CNC(=O)c2cnc3c(cnn3CC)c2NC2CCOCC2)cc1 [Example 636, 1-Ethyl-N-[(4-ethylphenyl)methyl]-4-(tetrahydro-2H-pyran-4-ylamino)-1H-pyrazolo[3,4-b]pyridine-5-carboxamide]
0.1 to 6.31 nM | CCn1ncc2c(NC3CCOCC3)c(C(=O)NCc3ccccc3I)cnc21 [Example 638, 1-Ethyl-N-[(2-iodophenyl)methyl]-4-(tetrahydro-2H-pyran-4-ylamino)-1H-pyrazolo[3,4-b]pyridine-5-carboxamide]
0.1 to 6.31 nM | CCn1ncc2c(NC3CCOCC3)c(C(=O)NCc3c(CO)ccc(Cl)c3Cl)cnc21 [Example 643, N-{[2,3-Dichloro-6-(hydroxymethyl)phenyl]methyl}-1-ethyl-4-(tetrahydro-2H-pyran-4-ylamino)-1H-pyrazolo[3,4-b]pyridine-5-carboxamide]
0.1 to 6.31 nM | CCn1ncc2c(NC3CCOCC3)c(C(=O)NCc3c(C)cc(Cl)cc3Cl)cnc21 [Example 644, N-[(2,4-Dichloro-6-methylphenyl)methyl]-1-ethyl-4-(tetrahydro-2H-pyran-4-ylamino)-1H-pyrazolo[3,4-b]pyridine-5-carboxamide]
0.1 to 6.31 nM | CCn1ncc2c(NC3CCOCC3)c(C(=O)NCc3ccc(CC(C)C)cc3)cnc21 [Example 645, 1-Ethyl-N-{[4-(2-methylpropyl)phenyl]methyl}-4-(tetrahydro-2H-pyran-4-ylamino)-1H-pyrazolo[3,4-b]pyridine-5-carboxamide]
0.1 to 6.31 nM | CCn1ncc2c(NC3CCC(=NO)CC3)c(C(=O)NCc3ccc(OC)cc3)cnc21 (centres unmarked) [Example 653, 1-Ethyl-4-{[4-(hydroxyimino)cyclohexyl]amino}-N-{[4-(methyloxy)phenyl]methyl}-1H-pyrazolo[3,4-b]pyridine-5-carboxamide]
